Consider 24 compounds from US9914730B2, “Azaquinazoline inhibitors of Atypical protein Kinase C” (Ignyta, Inc., priority 2012, dated 2018).

A value given as a limit tells only on which side of the number the result lay.

The assay deals with T1, full-length human PKCι (Homo sapiens, UniProt P41743).
T1 construct: Recombinant, full-length human PKCι expressed in Sf21 insect cells is also commercially available; purchased; host or cells: Sf21 insect cells
T1 sequence (P41743 1-596): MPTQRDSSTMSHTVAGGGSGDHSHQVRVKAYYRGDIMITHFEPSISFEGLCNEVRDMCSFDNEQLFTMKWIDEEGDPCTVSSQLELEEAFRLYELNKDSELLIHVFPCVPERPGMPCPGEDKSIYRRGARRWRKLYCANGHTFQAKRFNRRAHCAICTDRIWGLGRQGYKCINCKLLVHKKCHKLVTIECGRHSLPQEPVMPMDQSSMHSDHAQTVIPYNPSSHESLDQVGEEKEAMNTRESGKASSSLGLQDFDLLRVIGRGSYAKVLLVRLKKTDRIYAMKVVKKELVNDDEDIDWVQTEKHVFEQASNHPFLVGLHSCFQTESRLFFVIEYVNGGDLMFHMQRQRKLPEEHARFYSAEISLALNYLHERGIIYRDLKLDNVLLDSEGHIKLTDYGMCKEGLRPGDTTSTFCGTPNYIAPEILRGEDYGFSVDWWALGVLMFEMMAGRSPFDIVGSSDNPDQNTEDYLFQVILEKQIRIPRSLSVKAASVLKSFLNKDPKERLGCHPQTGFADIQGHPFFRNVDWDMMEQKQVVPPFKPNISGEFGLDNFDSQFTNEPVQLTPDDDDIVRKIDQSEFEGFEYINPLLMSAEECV
Put plainly: PKCι IC50 IMAP assay, full-length PKCι at 150 μM ATP. The settings on record: read-out: IC50 in IMAP assay against full length PKCi at 150 μM ATP. The class given is biochemical. The procedure, abridged:
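Full-length hPKCι (Sf21) ~15 pM; 5FAM-peptide 100 nM; ATP 150 μM (5× KM^APP); tris pH7.5/MgCl2/EGTA/DTT/Triton, 4% DMSO; 60 min RT; IMAP stop, 2 h; FP 485/530 nm; IC50 from % inhibition curves.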

As to `c1cc(Nc2cc(-c3nc(N4CCC4)c4c(C5CC5)cncc4n3)ccn2)cc(N2CCNCC2)c1` [Example 767, [4-(4-Azetidin-1-yl-5-cyclopropyl-pyrido[3,4-d]pyrimidin-2-yl)-pyridin-2-yl]-(3-piperazin-1-yl-phenyl)-amine], the IC50 is 100 to 1000 nM.

On to `FC(F)(F)C1CN(c2nc(-c3ccncc3)nc3c(Cl)nccc23)CCN1` (stereo not drawn) [Example 60, 1-[8-chloro-2-(pyridin-4-yl)-pyrido[3,4-d]-pyrimidin-4-yl]-3-(trifluoromethyl)-piperazine], for which the IC50 fell in the range of 1000 to 10000 nM.

In the case of `COc1cncc2nc(-c3ccnc(Nc4ccc(F)c(F)c4F)c3)nc(N3CCNCC3)c12` [Example 454, [4-(5-Methoxy-4-piperazin-1-yl-pyrido[3,4-d]pyrimidin-2-yl)-pyridin-2-yl]-(2,3,4-trifluoro-phenyl)-amine], the IC50 was in the range of 100 to 1000 nM.

Consider `COc1cncc2nc(-c3ccnc(Nc4cc(C#N)ccn4)c3)nc(N3CCC[C@@H](O)C3)c12` [Example 429, 2-{4-[4-((R)-3-Hydroxy-piperidin-1-yl)-5-methoxy-pyrido[3,4-d]pyrimidin-2-yl]-pyridin-2-ylamino}-isonicotinonitrile], for which the IC50 was 1000 to 10000 nM. As to `COc1cncc2nc(-c3ccnc(NC(=O)[C@@H](C)c4ccccc4)c3)nc(N3CCNCC3)c12` [Example 409, (S)-N-[4-(5-Methoxy-4-piperazin-1-yl-pyrido[3,4-d]pyrimidin-2-yl)-pyridin-2-yl]-2-phenyl-propionamide], the IC50 lay in the range of 100 to 1000 nM.

As to `c1cnc(Nc2cc(-c3nc(N4CCNCC4)c4c(C5CC5)cncc4n3)ccn2)cn1` [Example 507], the IC50 is below 100 nM. Regarding `c1ccc(Nc2cc(-c3nc(N4CC5CNCC5C4)c4c(C5CC5)cncc4n3)ccn2)cc1` (stereo not drawn) [Example 2131, {4-[5-Cyclopropyl-4-(hexahydro-pyrrolo[3,4-c]pyrrol-2-yl)-pyrido[3,4-d]pyrimidin-2-yl]-pyridin-2-yl}-phenyl-amine], the IC50 is below 100 nM. The same measure for `c1cc2c(N[C@@H]3CCNC3)nc(-c3ccnc(Nc4ccc(Cn5ccnc5)cc4)c3)nc2cn1` [Example 322, {2-[2-(4-Imidazol-1-ylmethyl-phenylamino)-pyridin-4-yl]-pyrido[3,4-d]pyrimidin-4-yl}-(R)-pyrrolidin-3-yl-amine]: 100 to 1000 nM; for `N#Cc1ccnc(Nc2cc(-c3nc(N4CCN5C(=O)OCC5C4)c4c(C5CC5)cncc4n3)ccn2)c1` (stereo not drawn) [Example 533, 2-{4-[5-Cyclopropyl-4-(3-oxo-tetrahydro-oxazolo[3,4-a]pyrazin-7-yl)-pyrido[3,4-d]pyrimidin-2-yl]-pyridin-2-ylamino}-isonicotinonitrile]: 100 to 1000 nM; for `Fc1cnc(Nc2cc(-c3nc(N4CCNCC4)c4c(C5CC5)cncc4n3)ccn2)c(F)c1` [Example 704, [4-(5-Cyclopropyl-4-piperazin-1-yl-pyrido[3,4-d]pyrimidin-2-yl)-pyridin-2-yl]-(3,5-difluoro-pyridin-2-yl)-amine]: below 100 nM. Under `COc1cncc2nc(-c3ccnc(NC(=O)C4CC4)c3)nc(N3CCC(O)CC3)c12` [Example 234, Cyclo-propane-carboxylic acid {4-[4-(4-hydroxy-piperidin-1-yl)-5-methoxy-pyrido[3,4-d]pyrimidin-2-yl]-pyridin-2-yl}-amide] stands 100 to 1000 nM; under `Fc1cccc(Nc2cc(-c3nc(N4CCNC(C(F)(F)F)C4)c4c(C5CC5)cncc4n3)ccn2)n1` (stereo not drawn) [Example 268, {4-[5-Cyclopropyl-4-(3-trifluoromethyl-piperazin-1-yl)-pyrido[3,4-d]pyrimidin-2-yl]-pyridin-2-yl}-(6-fluoro-pyridin-2-yl)-amine], 100 to 1000 nM. The same measure for `OC1CCN(c2nc(-c3ccncc3)nc3c(Cl)nccc23)CC1` [Example 75, 1-[8-chloro-2-(pyridin-4-yl)-pyrido[3,4-d]-pyrimidin-4-yl]-piperidin-4-ol]: 1000 to 10000 nM; for `OC1CCN(c2nc(-c3ccnc(Nc4cccc(N5CCNCC5)c4)c3)nc3cncc(C4CC4)c23)CC1` [Example 729, 1-{5-Cyclopropyl-2-[2-(3-piperazin-1-yl-phenylamino)-pyridin-4-yl]-pyrido[3,4-d]pyrimidin-4-yl}-piperidin-4-ol]: below 100 nM. Regarding `c1cc2c(N[C@@H]3CCNC3)nc(-c3ccnc(Nc4ccc(N5CCOCC5)nc4)c3)nc2cn1` [Example 319, {2-[2-(6-Morpholin-4-yl-pyridin-3-ylamino)-pyridin-4-yl]-pyrido[3,4-d]pyrimidin-4-yl}-(R)-pyrrolidin-3-yl-amine], the IC50 was below 100 nM. For `COc1cncc2nc(N3CCOCC3)nc(N3CCN[C@@H](COc4ccccc4)C3)c12` [Example 1006, 5-Methoxy-2-morpholin-4-yl-4-((R)-3-phenoxymethyl-piperazin-1-yl)-pyrido[3,4-d]pyrimidine], the IC50 was 100 to 1000 nM. The same measure for `Fc1cnc(Nc2cc(-c3nc(NC4CCNCC4F)c4c(C5CC5)cncc4n3)ccn2)c(F)c1` (stereo not drawn) [Example 2186, {5-Cyclopropyl-2-[2-(3,5-difluoro-pyridin-2-ylamino)-pyridin-4-yl]-pyrido[3,4-d]pyrimidin-4-yl}-(3-fluoro-piperidin-4-yl)-amine]: 100 to 1000 nM; for `c1ccc(COCc2cncc3nc(-c4ccncc4)nc(N4CCNCC4)c23)cc1` [Example 140, 1-{5-[(benzyloxy)methyl]-2-(pyridin-4-yl)pyrido[3,4-d]pyrimidin-4-yl}piperazine]: 100 to 1000 nM; for `C[C@H]1CN(c2nc(-c3ccnc(Nc4ccc(C(F)(F)F)cn4)c3)nc3cncc(C4CC4)c23)CCN1` [Example 839, {4-[5-Cyclopropyl-4-((S)-3-methyl-piperazin-1-yl)-pyrido[3,4-d]pyrimidin-2-yl]-pyridin-2-yl}-(5-trifluoromethyl-pyridin-2-yl)-amine]: below 100 nM. Under `Cc1ccnc(Nc2cc(-c3nc(N4CCNCC4)c4c(C5CC5)cncc4n3)ccn2)c1` [Example 267, [4-(5-Cyclopropyl-4-piperazin-1-yl-pyrido[3,4-d]pyrimidin-2-yl)-pyridin-2-yl]-(4-methyl-pyridin-2-yl)-amine] stands below 100 nM. `Fc1ccccc1-c1cc2c(-c3nc(N4CCNCC4)c4c(C5CCC5)cncc4n3)ccnc2[nH]1` [Example 2203, 5-Cyclobutyl-2-[2-(2-fluoro-phenyl)-1H-pyrrolo[2,3-b]pyridin-4-yl]-4-piperazin-1-yl-pyrido[3,4-d]pyrimidine]: the IC50 is below 100 nM. The same measure for `N[C@@H](CNc1nc(-c2ccncc2)nc2c(Sc3ccccc3)nccc12)Cc1ccccc1` [Example 128, (R)-3-Phenyl-N^1-(8-phenylsulfanyl-2-pyridin-4-yl-pyrido[3,4-d]pyrimidin-4-yl)-propane-1,2-diamine]: 1000 to 10000 nM.

Take `CN1CCN(c2cccc(Nc3cc(-c4nc(N5CCCCCC5)c5c(C6CC6)cncc5n4)ccn3)c2)CC1` [Example 804, [4-(4-Azepan-1-yl-5-cyclopropyl-pyrido[3,4-d]pyrimidin-2-yl)-pyridin-2-yl]-[3-(4-methyl-piperazin-1-yl)-phenyl]-amine]: the IC50 lay in the range of 100 to 1000 nM. The same measure for `CN(c1nc(-c2ccnc(Nc3c(F)cccc3F)c2)nc2cncc(C3CC3)c12)C1CCNC1` (stereo not drawn) [Example 2025, {5-Cyclopropyl-2-[2-(2,6-difluoro-phenylamino)-pyridin-4-yl]-pyrido[3,4-d]pyrimidin-4-yl}-methyl-pyrrolidin-3-yl-amine]: below 100 nM.
